The nature of series [1]: Vitrification of CPA laden solutions: opacity after plunging the device into liquid nitrogen. It is filed as physicochemical. An excerpt:
One convenient way for determining non-vitrification is the appearance of opacity as a result of ice formation when freezing solutions in a straw. If there is no visible opacity, it is called apparent vitrification. Although opacity could be easily identified in the traditional plastic straw using the naked eye, it is very difficult to do so for the quartz micro-capillary due to its small dimension. Therefore, an experimental setup shown in FIG. 10 was designed for visualization of opacity during cooling by directing two focused lights on the capillary held against a dark background for all the devices shown in FIG. 1 except the stainless steel micro-capillary. […] This setup was used to determine the threshold (minimum) CPA concentration required to completely avoid opacity during cooling. […] Various total CPA concentrations from 12% to 30% by volume with 2% increments were studied using both the open pulled straw and the thin walled quartz micro-capillary. Since 0.2-1 M sucrose or trehalose has been used in essentially all studies for cryopreservation of mammalian oocytes by both slow freezing and vitrification, further studies were also performed using the quartz micro-capillary for solutions with 0.5 M sucrose or trehalose plus 1.5 M, 2.0 M, and 2.5 M PROH, respectively. The solutions can be loaded into the open pulled straw and quartz micro-capillaries by capillary action while it can be expelled out of the capillaries by using a micro-syringe attached with a soft PEP polymer needle tip to push from the end of the capillaries with a bigger opening.

Series [2] is described as follows: Critical cooling rate to achieve vitrification (Vcc) from Boutron's semi-empirical theory and DSC K4. It is filed as physicochemical. An excerpt: The critical cooling rate to achieve vitrification (Vcc) is a function of the concentration of cryoprotectant. It has been extensively studied in the case of 1,2-propanediol and other alcohols with relevance in cryobiology, although mainly in the range of cooling rates achievable by differential scanning calorimetry (DSC) techniques. However, it is possible to obtain estimates of the critical cooling rates at other […]. The presence of sugars in equimolar concentrations has shown to have no effect on Vcc in the case of monosaccharides and little effect in the case of sucrose for the concentration used in these studies (0.3 M)(Kuleshova et al., Cryobiology 38: 199-130, 1999). The Vcc can be inferred from Boutron's semi-empirical theory of glass forming tendency (Boutron, Cryobiology 23:88-102, 1986); it is given by:
To is the initial temperature of crystallization and xg is the amount of ice formed at the critical cooling rate. Many studies in the literature consider a solution to be vitrified when xg≦10^−6 (Liu and McGrath, Proc. 2005 IEEE Eng. Med. Biol. 27th Ann. Conference, p. 7501-7504, 2005). K4 is a constant dependent of the solution and can be determined by DSC. Although there is not data for K4 in the available literature for our solution, some estimation can be done. The values of K4 for 40%, 37.5% and 35% (w/w) of aqueous solutions of 1,2 propanediol are 24.1° C./min, 54.1° C./min and 151° C./min (Ren et al., Cryobiology 31:47-56, 1994). These values of K4 give rise to Vcc values of 8.0×10^2° C./min, 1.8×10^3° C./min and 5.0×10^3° C./min, respectively. So, a tentative value of […] for 1.8 M of 1,2-propanediol is 10^4° C./min. […] The exponential fitting of the data is justified by the theory (Ren et al., supra).

For series [3], the system named is murine embryonic stem (ES) cells. In words: Attachment efficiency of ES cells post vitrification. It is filed as cell-based. The settings on record: 0.5 M trehalose, 2 M PROH, alone or combined; QMC, liquid nitrogen; day 1. How it is done: On the day of experiment, the attached cells were lightly trypsinized for 3-5 minutes and collected. The cells were pelleted at 100×g for 5 minutes and resuspended in cold stem cell media supplemented with 1.5 M 1,2-propanediol (Sigma, St Louis, Mo.) and incubated on ice for 10 minutes. The cells were then spun down at 100×g for 3-5 minutes and resuspended in 1 ml first vitrification solution for 10 minutes. The cells were then spun down at 100×g for 3-5 minutes and resuspended in the second solution at 10×10^6/ml for another 10 minutes. The first vitrification solution was made of ES cell maintenance medium supplemented with 1.5 M 1,2-propanediol, while the second solution was supplemented with 2 M 1,2-propanediol and 0.5 M trehalose (Ferro Pfanstiehl Laboratories, Inc., Waukegan, Ill.). Cells were also cryopreserved using either 0.5 M trehalose or 2 M 1,2-propanediol only for comparison. […]
Cell attachment and growth was determined by counting the number of cells per field under a 10× objective. […] The attachment efficiency was calculated as the ratio of the total number of cells per field of a cryopreserved sample to that of the control non-frozen sample at day 1. To assess the proliferation of the attached cells, the total number of cells per field was further monitored for 4 days.

The next series concerns primary rat hepatocytes. As to the kind of experiment: Hepatocyte viability post-cryopreservation in QMC, exclusion of trypan blue. It is filed as cell-based. The following applies: 1.5 M PROH, 0.3 M sucrose, or both, immediately post-cryopreservation. How it is done: The vitrification technique was also tested using primary liver cells (hepatocytes) due to their sensitivity to stress, and importance in liver tissue engineering and availability. The cell viability of hepatocytes was determined immediately post-cryopreservation in quartz micro-capillaries (QMC) in the presence of either no CPA; 0.3 M sucrose; 1.5 M 1,2-propanediol (PROH); 1.5 M PROH and 0.3 M sucrose; or 2.0 M PROH and […]. The number of viable cells was determined in both vitrified samples as well as non-vitrified controls (i.e., no freezing). Cell viability was quantified by the exclusion of trypan blue. […] There was only ˜35% survival for cells loaded with 1.5 M PROH prior to cryopreservation. Sucrose (0.3 M) was then added to the cryopreservation solution with 1.5-2 M PROH. […] When 0.3 M sucrose was added to the cryopreservation solution, the immediate viability jumped to ˜75%.

The subject of a further series is mouse oocytes. In words: Survival and morphology of mouse oocytes after vitrification in quartz capillaries. The format is cell-based. How it is done:
The 6-week-old B6D2F1 female mice were superovulated with 7.5 IU of pregnant mare serum gonadotrophin (Sigma-Aldrich, St. Louis, Mo., USA) and 7.5 IU of human chorionic gonadotrophin (Sigma-Aldrich) given by intraperitoneal injections 48 h apart. Fourteen hours after human chorionic gonadotrophin injection, females were anaesthetized with avertin (Sigma-Aldrich) then killed by cervical dislocation and their oviducts were removed. The cumulus-oocytecomplex was released from the ampullary region of each oviduct by puncturing the oviduct with a 27-gauge needle. Cumulus cells were removed by exposure to hyaluronidase (80 IU/ml) (Irvine Scientific, Santa Ana, Calif., USA) for 3 min and washed three times with human tubal fluid (HTF) medium (Irvine Scientific) with 10% fetal bovine serum (FBS; Gibco, Carlsbad, Calif., USA). Oocytes were transferred and cultured in HTF medium (Quinn et al., 1995) containing 10% FBS at 37° C. and 5% CO2 in air until they were vitrified.
All cryoprotectant solutions were filter-sterilized and stored at 4° C. prior to use. The base cryoprotectant solutions used were PrOH (Sigma-Aldrich) and trehalose (Ferro Pfanstiehl Laboratory, Waukegan, Ill., USA). The concentrations and types of cryoprotectants used were similar to those used in traditional slow-freezing protocols for human oocytes (Gook and Edgar, 2007) and are not typically vitrifiable. For vitrification, isolated mature oocytes were placed into HTF medium supplemented with 10% FBS. Two vitrification protocols using a HEPES-buffered physiological salt solution (FHM; Specialty Media, Lavallette, N.J., USA) (Lawitts and Biggers, 1993) as a base medium were tested. In the first protocol, the oocytes were equilibrated in a 30 μl droplet of 0.75 mol/l PrOH in FHM20 (FHM medium containing 20% FBS) for 5 min, then transferred to a 30 μl droplet of 0.5 mol/l trehalose+1.5 mol/l PrOH in FHM20 for 5 min.
In the second protocol, oocytes were equilibrated in a 30 μl droplet of 0.75 mol/l PrOH in FHM20 for 5 min, then equilibrated in a 30 μl droplet of 1.5 mol/l PrOH in FHM20 for 5 min before being transferred to a 0.5 mol/l trehalose 2.0 mol/l PrOH in FHM20, for 5 min. The QC straws (The Charles Supper Company, USA) used for vitrification have an outer and inner diameter of approximately 0.2 and 0.18 mm, respectively, and a wall thickness of 0.01 mm (He et al., 2008). After exposure to the vitrification solution, the oocytes were then loaded into the 200 μm QC and plunged into liquid or slush nitrogen for comparison. For warming, the vitrified oocytes were immediately immersed in a holding medium containing 0.2 mol/l trehalose in […]phosphate-buffered saline (PBS; Gibco) at 37° C. for 1 minute. […]

The conditions of series [4]: cited from earlier work.
[5] abbreviates: both open pulled straw and quartz micro-capillary.

“Also recorded” adds a separate entry of the source. Where two headings read alike, the source gives them in different places.

In the case of `CC(O)CO` (stereo not drawn) [1,2-Propanediol (PROH), 1,2-propanediol], the entries for the “appearance of the loaded quartz micro-capillary after plunging into liquid nitrogen” value in series [1] (1 M (7% v) 1,2-propanediol in FHM) and in series [1] (2 M (14% v) 1,2-propanediol in FHM) were “opaque; also recorded: whitish appearance” and “clear appearance”, respectively. For the same compound, the “threshold concentration lower than that of ethylene glycol (EG)” value in series [1] (setting [5]) is on record as about 5 % v. In series [1] (setting [5]), the “threshold concentration lower than that of the combination of EG and PROH in a 1:1 ratio” value turned out to be 2.5 % v. For the same compound, in series [1] (micro-capillary, liquid nitrogen), the “threshold concentration for the complete absence of opacity” value was about 2 M. In addition, the “K4, tentative value” in series [2] (1.8 M) was ~10^4 ° C./min. The “critical cooling rate to achieve vitrification (Vcc)” value in series [2] (35% (w/w) aqueous solution) is 5.0×10^3 ° C./min; in series [2] (37.5% (w/w) aqueous solution), 1.8×10^3 ° C./min; in series [2] (40% (w/w) aqueous solution) it was 8.0×10^2 ° C./min. In series [3], the “attachment efficiency (normalized to control)” value is “minimum amount of cells can attach”. Moreover, the “cell survival, immediate viability” value in the series on primary rat hepatocytes is listed as about 35%. Further, the Surviving oocytes in the series on mouse oocytes (liquid nitrogen, 1.5 mol/l PrOH + 0.5 mol/l trehalose in FHM20, QC) is reported as 18/40 (45.0) %; with mouse oocytes (liquid nitrogen, 2.0 mol/l PrOH + 0.5 mol/l trehalose in FHM20, QC), 19/40 (47.5) %; in the series on mouse oocytes (slush nitrogen, 1.5 mol/l PrOH + 0.5 mol/l trehalose in FHM20, QC), 36/40 (90.0) %; in the series on mouse oocytes (slush nitrogen, 2.0 mol/l PrOH + 0.5 mol/l trehalose in FHM20, QC) it was 28/40 (70.0) %. Further, the K4 is recorded as 151 ° C./min in series [4] (35% (w/w) aqueous solution), 54.1 ° C./min in series [4] (37.5% (w/w) aqueous solution) and 24.1 ° C./min in series [4] (40% (w/w) aqueous solution).
Regarding `OCCO` [Ethylene glycol (EG), ethylene glycol], the “threshold concentration for the complete absence of opacity” value in series [1] was about 4 M.
In the case of `OC[C@H]1O[C@@](CO)(O[C@H]2O[C@H](CO)[C@@H](O)[C@H](O)[C@H]2O)[C@@H](O)[C@@H]1O` [sucrose], the “cell survival, immediate viability” value in the series on primary rat hepatocytes is recorded as “less than 10%”.
As for `OC[C@H]1O[C@H](O[C@H]2O[C@H](CO)[C@@H](O)[C@H](O)[C@H]2O)[C@H](O)[C@@H](O)[C@@H]1O` [trehalose], the “attachment efficiency (normalized to control)” value in series [3] is listed as “minimum amount of cells can attach”.

The values are drawn from patent publication US20180094232A1, “Methods For The Cryopreservation Of Mammalian Cells” (The General Hospital Corporation, priority 2009, published 2018).
